{"source": "patent US12582784B2", "about": "“Dry powder inhalation system” (MannKind Corporation, priority 2008, dated 2026)", "key": {"[1]": {"design": "species or system human (subjects with type 1 diabetes mellitus)", "details": "human, in vivo, sc", "experimental": "The study was conducted in subjects with type 1 diabetes mellitus. This study was conducted to determine if a formulation for pulmonary delivery comprising insulin and a diketopiperazine in the formulation, 1) could be delivered consistently using different dosage strengths and 2) if linearity of dosing could be achieved with proportional doses, given that interchangeability of dosage strengths can be important for patient safety. […] Therefore, an important goal in the development of the pulmonary delivery system with a formulation comprising insulin and FDKP (insulin-FDKP) was to achieve dose linearity across the therapeutic dose range.\nIn the study, comparisons of insulin exposure following inhalation of two 15 U cartridges of an insulin inhalation powder to one 30 U cartridge of insulin inhalation powder were made. In addition, insulin bioavailability from a 30 U cartridge of insulin-FDKP inhalation powder was calculated, compared to a 10-IU subcutaneous (sc) injection of insulin lispro (rapid acting analogue [RAA]).\nA phase I, open-label, single-dose, repeat administration study in subjects with type 1 diabetes (T1DM) was conducted to assess the pharmacokinetic profile or PK of 30 U of insulin-FDKP dosed as a single 30 U cartridge and compared to two 15 U cartridges administered with the present inhalation system. […]"}, "[2]": {"test": "Baseline-corrected glucose infusion rate (GIR) evaluation under hyperinsulinemic-euglycemic clamp", "type": "in vivo, human (subjects with type 1 diabetes mellitus)", "details": "10 IU sc RAA", "experimental": "A phase I, open-label, single-dose, repeat administration study in subjects with type 1 diabetes (T1DM) was conducted to assess the pharmacokinetic profile or PK of 30 U of insulin-FDKP dosed as a single 30 U cartridge and compared to two 15 U cartridges administered with the present inhalation system. A 10 U subcutaneous injection of the rapid acting insulin analogue (RAA, HUMALOG® (Eli Lilly and Company, Indianapolis, IN)) was also tested. Subjects (age: 19-61 yrs) were randomized to 1 of 6 sequences. Fasted subjects received insulin-FDKP or RAA 4 to 6 hrs after initiating a hyperinsulinemic-euglycemic clamp. Randomization determined the order of insulin-FDKP dosing (first 2 treatment (tx) visits), and the location of the RAA injection (abdomen, arm or leg; 3rd tx visit). After dosing blood samples were taken and analyzed for insulin, insulin lispro and fumaryl diketopiperazine (FDKP (insulin-FDKP tx only)). When studying insulin-FDKP, the basal insulin infusion was performed with HUMALOG®, and when studying HUMALOG®, regular human insulin was used. The analytical methodologies enabled the independent measurement of each insulin tested.\nThis study also evaluated the effects of the dosages administered and the glucose infusion rate (GIR) requirements of the patients in the study. FIG. 19 illustrates the results of the GIR evaluation. […]"}}, "data": [{"substance": "insulin lispro [Humalog]", "values": [{"measurement": "Insulin PK parameters tmax", "setting": "[1]", "value": 1, "unit": "h"}, {"measurement": "time after administration at which GIR peaked", "setting": "[2]", "value": "approximately 150 minutes"}, {"measurement": "time at which GIR returned toward baseline", "setting": "[2]", "value": "~300", "unit": "min"}]}]}
